From patent US20130096370A1, “COMPOSITIONS AND SYSTEMS FOR THE REGULATION OF GENES” (priority 2002, published 2013)

System: p53 in MCF-7 breast cancer cells
Experiment: Down modulation of endogenous p53 in MCF-7 cells by dox-inducible siRNA lentivectors (Western blot)
Type: cell-based
Details: dually transduced MCF-7 cells, 5 days in dox, FIG. 7B
Procedure: To analyze the regulation of GFP a Hela cell clone carrying a single copy of the WPXLGFP provirus (Hela-GFP) was used. For transduction, Hela-GFP, MCF-7 or Hela cells were plated on 24-well plate (20×10^4 cells/well) and after 16 hrs medium containing recombinant lentivectors was added. Following 16 hrs of incubation the cells were washed, split and doxycycline was added to half of the transduced cells at a final concentration of 5 μg/ml. Five days later the cells were harvested and analyzed by FACS.
Cell extracts were prepared in RIPA lysis buffer (25 mM Tris pH 7.5, 1% Triton X-100, 0.5% sodium deoxycholate, 5 mM EDTA, 150 mM NaCl) containing a cocktail of protease inhibitors (Sigma). The protein samples (10 μg) were separated on 4-20% gradient PAGE-SDS gel, electroblotted to polyvinylidene fluoride membranes (Perkin Elmer) and exposed to antibodies against p53 (Santa Cruz Biotechnology), Lamin A/C (Santa Cruz Biotechnology), GFP (Clontech) and actin (Calbiochem). Antibodies conjugated with horseradish peroxidase (Amersham) and enhanced chemiluminescence (ECL; Amersham) was used for detection.

C[C@H]1c2cccc(O)c2C(=O)C2=C(O)[C@]3(O)C(=O)C(C(N)=O)=C(O)[C@@H](N(C)C)[C@@H]3[C@@H](O)[C@@H]21 [doxycycline]
dox concentration at which full-blown p53 suppression was achieved: 0.25 µg/mL | dox concentration at which p53 downregulation was already apparent: 0.004 µg/mL
